Measurements from the NIST ThermoML archive (doi:10.1016/j.jct.2015.09.030).

Legend:
[1] = xn = mol fraction of the nth substance listed; conditions: 100 kPa, Liquid, x2 = 0; for mass density: Vibrating tube method; for viscosity: Falling or rolling sphere viscometry
[2] = Liquid; for viscosity: Falling or rolling sphere viscometry; for mass density: Vibrating tube method

CO [methanol] + CCCCCCCCCCCCCC[P+](CCCCCC)(CCCCCC)CCCCCC.[Cl-]
[1]
Conditions | mass density [kg/m3] | viscosity [mPa·s]
290.15 K | 797.3 | –
293.15 K | 793.5 | –
295.15 K | 790.8 | 0.557
298.15 K | 786.8 | 0.544
303.15 K | 781.4 | 0.512
308.15 K | 777.3 | 0.479
313.15 K | 772.1 | 0.451

CO [methanol]
[2], 100 kPa
Conditions | mass density [kg/m3] | viscosity [mPa·s]
290.15 K | 797.3 | 0.6069
293.15 K | 793.5 | 0.5853
295.15 K | 790.8 | 0.5571
298.15 K | 786.8 | 0.5446
303.15 K | 781.4 | 0.5122
308.15 K | 777.3 | 0.4794
313.15 K | 772.1 | 0.4508
318.15 K | 767.7 | 0.4317
323.15 K | 762.1 | 0.4051

CCCCCCCCCCCCCC[P+](CCCCCC)(CCCCCC)CCCCCC.[Cl-] [trihexyl(tetradecyl)phosphonium chloride]
[2], 101.33 kPa
Conditions | mass density [kg/m3] | viscosity [mPa·s]
290.15 K | 897.5 | –
293.15 K | 895.8 | 1996
295.15 K | 894.6 | 1996
298.15 K | 892.8 | 1683
303.15 K | 889.8 | 1174
308.15 K | 886.9 | 824.1
313.15 K | 883.9 | 593.7
318.15 K | 880.8 | 399.9
323.15 K | 878 | 325.9
